The values that follow come from US20050037335A1, “Method for identifying novel transcriptional regulatory proteins” (priority 1999, published 2005).

The target of one assay is T1, tTA (Wildtype) (Escherichia coli, UniProt P04483).
T1 construct: expressed in transfected cells; host or cells: HeLa cells, transient transfection
The experiment in a line: Inducer-dependent repression of luciferase activity by tTA, transient transfection in HeLa cells. The format is cell-based.

A further assay concerns the target T2, tTA-45 (L170V) (Escherichia coli, UniProt P04483, L170V).
T2 construct: expressed in transfected cells; host or cells: HeLa cells, transient transfection
The experiment in a line: Inducer-dependent repression of luciferase activity by tTA-45, transient transfection in HeLa cells. The format is cell-based. The method, then:
One mutant that was isolated from this screen, tTA-45, was sequenced and found to carry an amino acid exchange at position 170 from a leucine to a valine (L170V). The induction efficiency of tTA-45 in response to varying concentrations of Tc or Dox was determined in transient transfection assays in HeLa cells. The inducer concentration leading to 50% repression of the luciferase activity (IC50) was determined and is described in Table 3 below.

T1 sequence (P04483 whole entry, added parts left off): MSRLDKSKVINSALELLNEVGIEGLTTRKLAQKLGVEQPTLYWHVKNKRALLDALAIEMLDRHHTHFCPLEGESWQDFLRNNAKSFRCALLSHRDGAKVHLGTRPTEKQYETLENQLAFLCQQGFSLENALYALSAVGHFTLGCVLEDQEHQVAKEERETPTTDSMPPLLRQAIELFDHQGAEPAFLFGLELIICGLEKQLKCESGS
T2 sequence (P04483 other isoform, or with tags, fused parts or gaps L170V): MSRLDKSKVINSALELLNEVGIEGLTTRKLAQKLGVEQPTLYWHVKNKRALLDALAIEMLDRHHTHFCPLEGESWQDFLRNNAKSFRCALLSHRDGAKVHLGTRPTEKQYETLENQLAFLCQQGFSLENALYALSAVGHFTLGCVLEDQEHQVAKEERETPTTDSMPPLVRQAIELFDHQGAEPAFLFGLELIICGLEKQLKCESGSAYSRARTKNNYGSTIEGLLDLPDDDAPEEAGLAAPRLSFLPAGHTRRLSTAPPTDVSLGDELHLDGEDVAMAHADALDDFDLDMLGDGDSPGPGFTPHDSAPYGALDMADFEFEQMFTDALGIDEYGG

As for `C[C@H]1c2cccc(O)c2C(=O)C2=C(O)[C@]3(O)C(=O)C(C(N)=O)=C(O)[C@@H](N(C)C)[C@@H]3[C@@H](O)[C@@H]21` [Dox, doxycycline], the IC50 – broadly, the concentration that inhibits the measured activity by half – was 1.35 nM at tTA (Wildtype) and 11.3 nM at tTA-45 (L170V).
In the case of `CN(C)[C@@H]1C(O)=C(C(N)=O)C(=O)[C@@]2(O)C(O)=C3C(=O)c4c(O)cccc4[C@@](C)(O)[C@H]3C[C@@H]12` [Tc, tetracycline], the results for the IC50 against tTA (Wildtype) and against tTA-45 (L170V) were 6.75 nM and 608 nM, respectively.
